Entries after “also recorded” stand apart in the source; their conditions may differ. Values belong to the compound of their own block, whether it stands above or below them.
Assays:
[1] = target: T1, 5α-Reductase of Rat Liver Microsomes (Rattus norvegicus, UniProt P24008); assay: biochemical
T1 sequence (P24008 1-259): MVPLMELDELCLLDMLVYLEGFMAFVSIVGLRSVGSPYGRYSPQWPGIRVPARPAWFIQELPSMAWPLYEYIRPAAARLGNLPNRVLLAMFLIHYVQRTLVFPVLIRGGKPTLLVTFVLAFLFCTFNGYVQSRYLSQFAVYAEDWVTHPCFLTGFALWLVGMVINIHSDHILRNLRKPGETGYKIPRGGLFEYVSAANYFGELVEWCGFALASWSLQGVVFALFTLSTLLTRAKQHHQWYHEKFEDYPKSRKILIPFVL
Description: Briefly, the binding assay solution, in a final volume of 0.15 ml, contained microsomes (2-20 μg of protein), 0.08 μCi of [^3 H]4-MA, 0.1 mM-NADPH, 1 mM-dithiothreitol and 50 mM-potassium phosphate, pH 7.0, with or without the indicated amount of a lipid or an inhibitor preparation. Lipids were dissolved in ethanol and added in 1-5 μl volumes. Control tubes received the same amount of ethanol. After incubation at 0° C. for 1 h, the [^3 H]4-MA bound to microsomes was determined by collecting microsomes on a Whatman GF/1F glass fibre filter and washing with 10 ml of 20 mM-potassium phosphate, pH 7.0, containing 0.01% CHAPS to remove unbound [^3 H]4-MA.
Microsomes were prepared at 4° C. from a buffered 0.32M-sucrose homogenate of human liver and from the livers of adult Sprague-Dawley female rats by differential centrifugation as described previously (Liang et al., 1990), and were used in the assay of 5α-reductase activity. In some experiments, microsomes were solubilized with 0.1% polyoxyethylene ether W-1 as described previously (Liang et al., 1990), except for the substitution of polyoxyethylene ether W-1 for Lubrol-WX.

[2] = system: 5α-reductase / prostate; settings: cited from earlier work
[3] = system: rat pituitary cultures; settings: cited from earlier work
[4] = system: prostate; settings: dog, in vivo; cited from earlier work
[5] = system: scalp baldness; settings: cited from earlier work; for baldness: topical to scalp
[6] = system: 5α-reductase; assay: 5α-reductase inhibition stated in words; type: biochemical
[7] = target: T1, 5α-Reductase of Rat Liver Microsomes; assay: [3H]4-MA binding assay, rat liver microsomes (tea catechins)
How it was run: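 Microsomes from adult female Sprague-Dawley rat liver or Rat-1A cells expressing human 5α-reductase, 25 μg protein per reaction. Incubation 30–60 min at 0 °C; microsome-bound [3H]4-MA collected on glass-fibre filters and counted. Duplicate or triplicate determinations, values based on reaction rate.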

[8] = target: T2, human 5α-reductase isozyme type 2 (Homo sapiens, UniProt P31213); assay: 4-[14C]testosterone reduction, human type 2 isozyme; type: biochemical
T2 construct: expressed in transfected cells; host or cells: Rat-1A cells infected with pMV7 retrovirus; microsomes of these cells
T2 sequence (P31213 1-254): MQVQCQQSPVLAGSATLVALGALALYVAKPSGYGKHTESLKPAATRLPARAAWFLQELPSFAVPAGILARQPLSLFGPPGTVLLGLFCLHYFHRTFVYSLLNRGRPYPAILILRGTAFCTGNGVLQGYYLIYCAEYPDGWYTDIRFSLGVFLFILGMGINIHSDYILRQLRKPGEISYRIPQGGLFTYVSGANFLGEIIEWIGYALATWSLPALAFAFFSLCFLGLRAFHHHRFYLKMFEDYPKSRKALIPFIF
Source text: (§1) The cDNAs for the human type 1 and 2 5α-reductases were isolated from human prostate λZAP II™ cDNA libraries using the published sequence of the 5α-reductases, PCR™ and standard library screening techniques (Sambrook et al., 1989). The type 1 and 2 cDNAs correspond to nucleotides 31-870 and 28-829, respectively, of the published sequences for these 5α-reductases (Anderson and Russell, 1990; Anderson et al., 1991). The type 1 and 2 cDNAs were subcloned into the retroviral expression vector pMV7 (Kirschmeier et al., 1988) and high titer stocks of virus containing the type 1 and 2 cDNAs were generated using the packaging cells BOSC 23 293 (Kirschmeier et al., 1988). Rat.-1A cells (Pear et al., 1993) were infected with virus (Topp, 1981) and cells containing integrated retrovirus were selected for G418-SO4 resistance, (Brown and Scott, 1987).
(§2) Microsomes were prepared as described previously (Liang and Liao, 1992) from the liver of adult Sprague-Dawley female rats or Rat-1A cells expressing a specific type of human 5α-reductase. […] The data presented was based on the rate of reaction.
(§3) The reaction was started by the addition of 25 μl of microsomes (25 μg protein). The mixture was incubated at 37° for 30-60 min and stopped by addition of 0.5 ml of ethyl acetate and mixing for 1 min. The organic solvent extract was removed under vacuum.

[9] = target: T3, human 5α-reductase isozyme type 1 (Homo sapiens, UniProt P18405); assay: [3H]4-MA binding, human type 1 isozyme expressed in Rat-1A cells; settings: read-out: % Inhibition of [^3 H]4-MA binding
T3 construct: expressed in transfected cells; host or cells: Rat-1A cells infected with pMV7 retrovirus; microsomes of these cells
T3 sequence (P18405 1-259): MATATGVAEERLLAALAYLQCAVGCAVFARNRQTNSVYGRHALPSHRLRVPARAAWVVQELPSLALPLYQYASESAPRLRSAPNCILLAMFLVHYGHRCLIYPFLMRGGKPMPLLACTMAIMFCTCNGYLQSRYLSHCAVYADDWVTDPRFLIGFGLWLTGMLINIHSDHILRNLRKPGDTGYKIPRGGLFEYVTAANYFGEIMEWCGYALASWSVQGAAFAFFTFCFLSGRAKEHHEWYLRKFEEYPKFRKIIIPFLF
Source text: as §1, §2
(§4) [^3 H]4-MA binding assay were described in detail previously (Liang and Liao, 1992; Liang et al., 1983). […] The reaction was started by the addition of 25 μl of microsomes (25 μg protein). After 30-60 min incubation at 0° C., the [^3 H]4-MA bound to microsomes was collected on a Whatman GF/F glass fiber, washed and radioactivity determined (Liang and Liao, 1992).

[10] = system: androgen-dependent organs; type: in vivo, rat
Description: The control rats were injected with 0.3 ml of 30% ethanol.

[11] = system: prostate and preputial organ; assay: Catechins ip 7 days, large rats; type: in vivo, rat; settings: 15 mg ip/day, 7 days
Description: Male Sprague Dawley rats, 172±20 g body weight, were used. Each group had 5 rats. […] The control rats received 0.3 ml of 30% ethanol.

[12] = target: Soybean lipoxygenase (Glycine max, UniProt P08170); settings: cited from earlier work
Sequence of Soybean lipoxygenase (P08170 whole entry): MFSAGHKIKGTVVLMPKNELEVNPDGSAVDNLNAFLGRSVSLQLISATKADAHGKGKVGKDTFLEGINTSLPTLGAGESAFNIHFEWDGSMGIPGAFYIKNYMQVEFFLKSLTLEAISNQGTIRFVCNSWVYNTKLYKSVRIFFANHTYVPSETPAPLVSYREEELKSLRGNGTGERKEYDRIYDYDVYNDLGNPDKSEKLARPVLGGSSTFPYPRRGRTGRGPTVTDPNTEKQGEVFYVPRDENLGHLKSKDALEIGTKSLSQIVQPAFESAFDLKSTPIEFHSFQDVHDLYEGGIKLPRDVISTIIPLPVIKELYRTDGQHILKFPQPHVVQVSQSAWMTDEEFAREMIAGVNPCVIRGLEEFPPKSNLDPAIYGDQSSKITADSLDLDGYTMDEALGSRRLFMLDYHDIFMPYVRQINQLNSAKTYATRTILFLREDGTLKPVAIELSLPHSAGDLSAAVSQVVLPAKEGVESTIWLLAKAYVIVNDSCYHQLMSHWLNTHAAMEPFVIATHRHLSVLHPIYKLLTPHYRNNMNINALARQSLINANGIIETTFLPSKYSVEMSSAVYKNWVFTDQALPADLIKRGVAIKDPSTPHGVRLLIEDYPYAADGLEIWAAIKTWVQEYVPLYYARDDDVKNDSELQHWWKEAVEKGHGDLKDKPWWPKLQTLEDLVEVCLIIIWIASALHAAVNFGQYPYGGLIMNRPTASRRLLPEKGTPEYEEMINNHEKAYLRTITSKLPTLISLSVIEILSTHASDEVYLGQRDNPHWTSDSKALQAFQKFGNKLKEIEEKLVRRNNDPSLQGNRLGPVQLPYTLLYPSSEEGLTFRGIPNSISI

[13] = target: T3, human 5α-reductase isozyme type 1; assay: 4-[14C]testosterone reduction, human type 1 isozyme; type: biochemical
Source text: as §1, §2, §3

[14] = NADPH oxidation in presence of microsomes
[15] = target: T2, human 5α-reductase isozyme type 2; assay: [3H]4-MA binding, human type 2 isozyme expressed in Rat-1A cells
Source text: as §1, §2, §4

[16] = system: type 1 5α-reductase; type: biochemical
Description: as §4, §3

[17] = system: human type 1 and 2 5α-reductase isozymes; settings: human; cited from earlier work
[18] = target: human type 1 and 2 5α-reductase isozymes (Homo sapiens, UniProt P18405); settings: cited from earlier work
[19] = system: plasma 5α-DHT and prostate; settings: BPH patients; cited from earlier work
[20] = target: type 1 5α-reductase (Homo sapiens, UniProt P18405); settings: cited from earlier work
[21] = read-out: % Inhibition of [^3 H]4-MA binding
[22] = read-out: % Inhibition of 5α-reduction

Ki [1]: 0.013 µM
Compound: CCN(CC)C(=O)[C@H]1CC[C@H]2[C@@H]3CC[C@H]4N(C)C(=O)CC[C@]4(C)[C@H]3CC[C@]12C [4-MA, 17β-N,N-diethylcarbamoyl-4-methyl-4-aza-5α-androstan-3-one]
effect on prostate growth ([2]; castrated rats + testosterone): attenuated the growth of the prostate
effect on prostatic 5α-DHT ([2]; intact or castrated male rats given testosterone propionate): decreasing the prostatic concentration of 5α-DHT
testosterone inhibition of LH release [3]: did not affect testosterone inhibition of LH release
prostate size [4]: the prostate size decreases
baldness [5]: prevented the baldness; also recorded: effective in preventing male pattern baldness

5α-reductase inhibition [6]: potent inhibitor of 5α-reductase
Compound: O=C(OCc1cc(O)c(O)c(O)c1)c1cc(O)c(O)c(O)c1

Compound: O=C(O[C@@H]1Cc2c(O)cc(O)cc2O[C@@H]1c1ccc(O)c(O)c1)c1cc(O)c(O)c(O)c1 [ECG, (-)Epicatechin-3-gallate]
inhibition at 5 µM [7, 21]: 25%
inhibition at 10 µM [7, 21]: 44%
inhibition at 20 µM [7, 21]: 74%
inhibition at 40 µM [7, 21]: 88%
inhibition at 200 µM [7, 21]: 92%
IC50 ([7]; type 1 5α-reductase of rat liver microsomes, read-out: IC50): 12 µM
activity on type 2 isozyme ([8]; enzymatic assay, concentrations below 30 μM for ECG/EGCG): did not inhibit the Type 2 isozyme
inhibition at 1 µM [8, 22]: < 10%
inhibition at 3 µM [8, 22]: < 10%
inhibition at 10 µM [8, 22]: < 10%
inhibition at 30 µM [8, 22]: < 10%
inhibition at 100 µM [8, 22]: 82%
inhibition at 1 µM [9]: 34%
inhibition at 3 µM [9]: 47%
inhibition at 10 µM [9]: 79%
inhibition at 30 µM [9]: 87%
inhibition at 100 µM [9]: 79%
effect on all organs examined ([10]; 10 and 15 mg per day): less than 20%
effect on the body weight ([10]; up to 15 mg per day): No significant effect
effect on the body weights [11]: less than 10%
IC50 [12]: 18 µM
IC50 ([13]; enzymatic assay): ~10 µM
inhibition at 1 µM [13, 22]: 20%
inhibition at 3 µM [13, 22]: 27%
inhibition at 10 µM [13, 22]: 47%
inhibition at 30 µM [13, 22]: 90%
inhibition at 100 µM [13, 22]: 99%
NADPH oxidation [14]: did not induce NADPH oxidation
inhibition at 1 µM [15, 21]: 17%
inhibition at 3 µM [15, 21]: 17%
inhibition at 10 µM [15, 21]: 45%
inhibition at 30 µM [15, 21]: 76%
inhibition at 100 µM [15, 21]: 80%
competition with testosterone or NADPH [16]: did not appear to compete with testosterone or NADPH

Compound: CC(C)(C)NC(=O)[C@H]1CC[C@H]2[C@@H]3CC[C@H]4NC(=O)C=C[C@]4(C)[C@H]3CC[C@]12C [Finasteride, 17β-N-t-butylcarbamoyl-4-aza-5α-androst-1-en-3-one, reference compound]
sensitivity of type 2 vs type 1 isozyme to inhibition (times) [17]: 30 times
sensitivity of type 1 isozyme [18]: rather insensitive
inhibition at 0.001 µM [9]: < 10%
inhibition at 0.003 µM [9]: < 10%
inhibition at 0.01 µM [9]: < 10%
inhibition at 0.03 µM [9]: < 10%
inhibition at 0.1 µM [9]: < 10%
plasma 5α-DHT and prostate size [19]: decreases the plasma level of 5α-DHT and the size of the prostate
inhibition of type 2 isozyme expressed in Rat-1A cells [15]: inhibited the type 2 isozyme
inhibition at 0.001 µM [15, 21]: < 10%
inhibition at 0.003 µM [15, 21]: < 10%
inhibition at 0.01 µM [15, 21]: 22%
inhibition at 0.03 µM [15, 21]: 44%
inhibition at 0.1 µM [15, 21]: 67%
serum 5α-DHT and hair ([5]; 0.5 mg/day oral, alone or with topical 2% Minoxidil): reduced serum 5α-DHT level
baldness [5]: effective in preventing male pattern baldness

Compound: CN1C(=O)CC[C@@H]2c3ccc(Cl)cc3CC[C@H]21 [LY191704]
type 1 5α-reductase selectivity [20]: selective inhibitor of the type 1 5α-reductase
